As usually defined, the EC50 is the concentration at which the effect is half-maximal.

T1 sequence (P14867 28-456): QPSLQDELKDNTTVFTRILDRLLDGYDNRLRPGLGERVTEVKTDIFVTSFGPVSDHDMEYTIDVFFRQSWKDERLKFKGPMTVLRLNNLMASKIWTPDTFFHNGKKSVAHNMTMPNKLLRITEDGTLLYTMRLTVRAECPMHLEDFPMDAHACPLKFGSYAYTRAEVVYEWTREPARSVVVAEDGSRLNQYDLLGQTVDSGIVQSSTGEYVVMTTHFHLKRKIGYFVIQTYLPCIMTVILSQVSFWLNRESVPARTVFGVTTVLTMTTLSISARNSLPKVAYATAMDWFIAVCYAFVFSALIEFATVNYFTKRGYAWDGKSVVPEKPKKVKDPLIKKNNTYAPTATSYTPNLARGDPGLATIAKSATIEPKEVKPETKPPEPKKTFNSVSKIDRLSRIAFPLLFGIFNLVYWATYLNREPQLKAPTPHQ
T1 sequence (P47870 26-512): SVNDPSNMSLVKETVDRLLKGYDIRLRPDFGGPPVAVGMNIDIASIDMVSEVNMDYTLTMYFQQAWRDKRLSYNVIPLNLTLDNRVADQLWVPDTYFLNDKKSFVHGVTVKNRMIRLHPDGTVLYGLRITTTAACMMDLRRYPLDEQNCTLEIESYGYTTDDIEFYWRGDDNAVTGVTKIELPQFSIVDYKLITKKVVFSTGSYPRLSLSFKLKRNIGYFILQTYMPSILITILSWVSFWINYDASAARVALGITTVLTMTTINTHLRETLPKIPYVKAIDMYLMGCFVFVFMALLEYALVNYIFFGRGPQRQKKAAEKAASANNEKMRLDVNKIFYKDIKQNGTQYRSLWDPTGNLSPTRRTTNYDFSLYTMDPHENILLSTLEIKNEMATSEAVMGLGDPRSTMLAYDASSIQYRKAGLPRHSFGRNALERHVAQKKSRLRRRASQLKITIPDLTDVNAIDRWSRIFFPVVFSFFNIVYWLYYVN
T1 sequence (P18507 40-467 isoform P18507-1 partner limits assumed): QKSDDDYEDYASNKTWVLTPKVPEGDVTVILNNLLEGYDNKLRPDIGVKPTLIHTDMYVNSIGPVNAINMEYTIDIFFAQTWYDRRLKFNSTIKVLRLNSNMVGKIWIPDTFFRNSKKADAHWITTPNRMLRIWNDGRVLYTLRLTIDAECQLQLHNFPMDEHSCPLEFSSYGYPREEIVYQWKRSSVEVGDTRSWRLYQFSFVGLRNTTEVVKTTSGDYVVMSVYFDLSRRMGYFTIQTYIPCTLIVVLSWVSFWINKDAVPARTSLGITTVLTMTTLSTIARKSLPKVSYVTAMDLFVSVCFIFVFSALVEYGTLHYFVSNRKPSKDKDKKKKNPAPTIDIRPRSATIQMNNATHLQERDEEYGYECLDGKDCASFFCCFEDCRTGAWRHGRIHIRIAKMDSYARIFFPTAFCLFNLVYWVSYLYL

One experiment addresses T1, α1β2γ2S GABAA receptors (Homo sapiens, UniProt P14867+P47870).
T1 construct: expressed in transfected cells; host or cells: Xenopus laevis oocytes injected with cRNA (pCMV cDNA templates)
The experiment can be described thus: Two-microelectrode voltage clamp, IGABA modulation, α1β2γ2S. It counts as cell-based. The conditions noted are these: 100 μM compound, GABA EC3–7, Xenopus laevis oocytes, mean ± SEM. Here is the method:
Preparation of stage V–VI oocytes from X. laevis and synthesis of capped runoff poly(A) cRNA transcripts from linearized cDNA templates (pCMV vector) was performed as previously described.[49] […] Follicle membranes from isolated oocytes were enzymatically digested with 2 mg/mL collagenase (type 1A, Sigma–Aldrich, Vienna, Austria).
Selected oocytes were injected with 10–50 nL of DEPC-treated water (diethyl pyrocarbonate, Sigma, Vienna, Austria) containing the different GABAA cRNAs at a concentration of approximately 300–3000 pg·nL^–1·subunit^–1.
To ensure expression of the γ2S subunit in the case of α1/2/3/5β2/3γ2S receptors, cRNAs were mixed in a ratio of 1:1:10. […] The amount of cRNAs was determined by means of a NanoDrop ND-1000 (Kisker-Biotech, Steinfurt, Germany).
Oocytes were stored at +18 °C in modified ND96 solution (90 mM NaCl, 1 mM CaCl2, 1 mM KCl, 1 mM MgCl2·6H2O, and 5 mM HEPES [4-(2-hydroxyethyl)-1-piperazineethanesulfonic acid], pH 7.4, all from Sigma–Aldrich, Vienna, Austria).
Chloride currents through GABAA receptors (IGABA) were measured at room temperature (+21 ± 1 °C) by means of a two-microelectrode voltage clamp technique making use of a Turbo TEC-05X amplifier (npi electronic, Tamm, Germany). IGABA were elicited at a holding potential of –70 mV. Data acquisition was carried out by means of an Axon Digidata 1322A interface using pCLAMP v.10 (Molecular Devices, Sunnyvale, CA). The modified ND96 solution was used as bath solution.
GABA and the studied derivatives were applied by means of the ScreeningTool (npi electronic, Tamm, Germany) fast perfusion system as described previously.[50] To elicit IGABA, the chamber was perfused with 120 μL of GABA- or compound-containing solution at a volume rate of 300 μL/s.[34] Care was taken to account for possible slow recovery from increasing levels of desensitization in the presence of high drug concentrations. The duration of washout periods was therefore extended from 1.5 min (<10 μM compounds) to 30 min (≥10 μM compounds). Oocytes with maximal current amplitudes >3 μA were discarded to exclude voltage clamp errors.
Stimulation of chloride currents by modulators of the GABAA receptor was measured at a GABA concentration eliciting between 3% and 7% of the maximal current amplitude (EC3–7). The GABA EC3–7 was determined for each oocyte individually. Enhancement of the chloride current was defined as (IGABA+compd/IGABA) – 1, where IGABA+compd is the current response in the presence of a given compound and IGABA is the control GABA current. IGABA-max reflects the maximal IGABA enhancement. Concentration–response curves were generated and the data were fitted by nonlinear regression analysis using Origin Software (OriginLab Corp.). Data were fitted to the equation 1/(1 + (EC50/[compound])^nH), where nH is the Hill coefficient. […] Statistical significance was calculated by paired Student t-test with a confidence interval of <0.05.
Turning to `CCN1CCN(C(=O)/C=C/C=C/c2ccc3c(c2)OCO3)CC1` [Compound 32], the activation at 100 µM is -5%.
Regarding `CN(C)CCNC(=O)/C=C/C=C/c1ccc2c(c1)OCO2` [Compound 4], the activation at 100 µM was -15%.
Regarding `CCCCN(CCCC)C(=O)/C=C/c1cccc2cc3c(cc12)OCO3` [Compound 67], the activation at 100 µM is 18 ± 9%.
With `COc1ccc(CCNC(=O)/C=C/C=C/c2ccc3c(c2)OCO3)cc1OC` [Compound 5], the activation at 100 µM is -2%.
As for `CCCCN(CCCC)C(=O)c1ccc(-c2ccc3c(c2)OCO3)s1` [Compound 60], the activation at 100 µM was determined as 51 ± 21%.
For the molecule `O=C(/C=C/c1ccc2c(c1)OCO2)N1CCCCC1` [Compound 17], the activation at 100 µM was 79 ± 8%.
Turning to `CCCCNC(=O)/C=C/C=C/c1ccc2c(c1)OCO2` [Compound 11], the activation at 100 µM was found to be 51 ± 11%.
On the same count and under the same terms, in the case of `CC(C)N(C(=O)c1ccc(-c2ccc3c(c2)OCO3)cc1)C(C)C` [Compound 49] it was 30 ± 15%.
As for `CCCCN(CCCC)C(=O)c1cccc(-c2ccc3c(c2)OCO3)c1` [Compound 52], the activation at 100 µM is 63 ± 12%.
As to `CCCCCCN(CCCCCC)C(=O)/C=C/C=C/c1ccc2c(c1)OCO2` [Compound 26], the activation at 100 µM was found to be 0%.
On the same count and under the same terms, in the case of `O=C(/C=C/c1ccc2cc3c(cc2c1)OCO3)N1CCCCC1` [Compound 68] it was -1%.
`O=C(c1ccc(-c2ccc3c(c2)OCO3)cc1)N1CCCCC1` [Compound 46]: the activation at 100 µM was 42% and the “modulation of IGABA (%)” value is 42 ± 1 %.
`CC(C)N(C(=O)c1ccccc1-c1ccc2c(c1)OCO2)C(C)C` [Compound 57]: the activation at 100 µM came to 15 ± 15%.
For `O=C(c1ccccc1-c1ccc2c(c1)OCO2)N1CCCCC1` [Compound 54], the activation at 100 µM was found to be 34 ± 8%.
With `CN(C)C(=O)/C=C/C=C/c1ccc2c(c1)OCO2` [Compound 20], the activation at 100 µM was determined as 61 ± 28%.
Regarding `CC(C)N(C(=O)/C=C/c1ccc2c(c1)OCO2)C(C)C` [Compound 18], the activation at 100 µM is 66 ± 30%.
In the case of `O=C(/C=C/C=C/c1ccc2c(c1)OCO2)Nc1c(F)cc(F)cc1F` [Compound 3], the activation at 100 µM came to 5 ± 5%.
Same read-out and setting: in the case of `CSc1ccc(NC(=O)/C=C/C=C/c2ccc3c(c2)OCO3)cc1` [Compound 1] it was 0%; in that of `O=C(c1cccc2cc3c(cc12)OCO3)N1CCCCC1` [Compound 71], 32 ± 10%.
For `O=C(/C=C/C=C/c1ccc2c(c1)OCO2)NC12CC3CC(CC(C3)C1)C2` [Compound 16], the activation at 100 µM is -6%.
Take `CN1CCN(C(=O)/C=C/C=C/c2ccc3c(c2)OCO3)CC1` [Compound 31]: the activation at 100 µM is -20%.
Same read-out and setting: in the case of `O=C(c1ccc(-c2ccc3c(c2)OCO3)s1)N1CCCCC1` [Compound 58] it was -5%; in that of `O=C(/C=C/C=C/c1ccc2c(c1)OCO2)N1CCN(CCOCCO)CC1` [Compound 40], 12 ± 8%; in that of `O=C(/C=C/C=C/c1ccc2c(c1)OCO2)NC1CCCC1` [Compound 13], 33 ± 17%.
Turning to `CCCCCCCCCCNC(=O)/C=C/C=C/c1ccc2c(c1)OCO2` [Compound 15], the activation at 100 µM was -1%.
As for `COc1ccccc1N1CCN(C(=O)/C=C/C=C/c2ccc3c(c2)OCO3)CC1` [Compound 41], the activation at 100 µM was 5 ± 5%.
`O=C(/C=C/C=C/c1ccc2c(c1)OCO2)Nc1ccc([N+](=O)[O-])cc1O` [Compound 10]: the activation at 100 µM turned out to be 1 ± 7%.
The same measure, in the same setting: under `CC(C)CN(CC(C)C)C(=O)c1cccc2cc3c(cc12)OCO3` [Compound 74] stands 60 ± 17%; under `CCCCN(CCCC)C(=O)c1cccc2c(-c3ccc4c(c3)OCO4)cccc12` [Compound 64], 4 ± 4%; under `O=C(/C=C/C=C/c1ccc2c(c1)OCO2)NCc1ccccc1` [Compound 14], 0%.
As to `CCCCN(CCCC)C(=O)/C=C/c1ccc2cc3c(cc2c1)OCO3` [Compound 70], the activation at 100 µM worked out at 32% and the “modulation of IGABA (%)” value is listed as 32 ± 12%.
Regarding `O=C(/C=C/C=C/c1ccc2c(c1)OCO2)NCCCc1ccccc1` [Compound 8], the activation at 100 µM was -8%.
Consider `O=C(/C=C/C=C/c1ccc2c(c1)OCO2)N1CCC(O)CC1` [Compound 37], for which the activation at 100 µM stood at 26 ± 14%.
The same measure, in the same setting: under `CC(C)N(C(=O)c1ccc(-c2ccc3c(c2)OCO3)s1)C(C)C` [Compound 61] stands 11 ± 2%; under `O=C(/C=C/C=C/c1ccc2c(c1)OCO2)NCCC(c1ccccc1)c1ccccc1` [Compound 12], -6%.
On the same count and under the same terms, in the case of `S=C(/C=C/C=C/c1ccc2c(c1)OCO2)N1CCCCC1` [Compound 44] it was 17 ± 17%.
Still for that read-out and setting: under `CCCN(CCC)C(=O)c1cccc2c(-c3ccc4c(c3)OCO4)cccc12` [Compound 63] stands 12 ± 4%; under `COc1cc(NC(=O)/C=C/C=C/c2ccc3c(c2)OCO3)cc(OC)c1OC` [Compound 2], 10%; under `C(/C=C/c1ccc2c(c1)OCO2)=C\CN1CCCCC1` [Compound 45], -16%.
`CCCN(CCC)C(=O)/C=C/c1ccc2cc3c(cc2c1)OCO3` [Compound 69]: the activation at 100 µM was 74 ± 1%.
Same read-out and setting: in the case of `O=C(/C=C/C=C/c1ccc2c(c1)OCO2)Nc1cccnc1` [Compound 6] it was -7%.
Still for that read-out and setting: under `O=C(/C=C/C=C/c1ccc2c(c1)OCO2)Nc1ccc(Cl)cn1` [Compound 7] stands 8 ± 7%; under `O=C(/C=C/C=C/c1ccc2c(c1)OCO2)N1CCOCC1` [Compound 29], 0%; under `O=C(/C=C/C=C/c1ccc2c(c1)OCO2)N1CCN(Cc2ccccc2)CC1` [Compound 42], 48 ± 12%.
Regarding `O=C(/C=C/C=C/c1ccc2c(c1)OCO2)N1CCCC(O)C1` (stereo not drawn) [Compound 36], the activation at 100 µM is 33 ± 9%.
Still for that read-out and setting: in the case of `O=C(c1ccc2cc3c(cc2c1)OCO3)N1CCCCC1` [Compound 75] it was 58 ± 29%; in that of `O=C(/C=C/C=C/c1ccc2c(c1)OCO2)N(C1CCCCC1)C1CCCCC1` [Compound 27], 13 ± 13%.
For `CCCN(CCC)C(=O)c1ccccc1-c1ccc2c(c1)OCO2` [Compound 55], the activation at 100 µM worked out at 79 ± 24%.
Take `O=C(c1cccc2c(-c3ccc4c(c3)OCO4)cccc12)N1CCCCC1` [Compound 62, [5-(Benzo[d][1,3]dioxol-5-yl)naphthalen-1-yl](piperidin-1-yl)methanone]: the activation at 100 µM stood at 13 ± 2%.
Same read-out and setting: under `CCCCN(CCCC)C(=O)c1ccc(-c2ccc3c(c2)OCO3)cc1` [Compound 48] stands 49 ± 7%; under `O=C(/C=C/C=C/c1ccc2c(c1)OCO2)Nc1ccccc1O` [Compound 9], 0%.

Still in this experiment, the particulars now being: Hill coefficient of concentration–response curve.
The molecule `CCCCN(CCCC)C(=O)c1ccccc1-c1ccc2c(c1)OCO2` [Compound 56] registered a nH of 1.2 ± 0.0.
In the case of `CC1CCN(C(=O)/C=C/C=C/c2ccc3c(c2)OCO3)CC1` [Compound 35], the nH turned out to be 1.9 ± 0.3.
On the same count and under the same terms, under `O=C(/C=C/C=C/c1ccc2c(c1)OCO2)N(CC(F)(F)F)CC(F)(F)F` [Compound 43] stands 1.6 ± 0.2; under `CC(C)N(C(=O)/C=C/C=C/c1ccc2c(c1)OCO2)C(C)C` [Compound 22], 2.3 ± 0.2.
The molecule `CC(C)N(C(=O)c1cccc(-c2ccc3c(c2)OCO3)c1)C(C)C` [Compound 53] registered a nH of 1.5 ± 0.2.
Still for that read-out and setting: in the case of `CCCN(CCC)C(=O)c1ccc(-c2ccc3c(c2)OCO3)cc1` [Compound 47] it was 1.2 ± 0.2.
Still for that read-out and setting: in the case of `CCCCN(CCCC)C(=O)c1cccc2cc3c(cc12)OCO3` [Compound 73] it was 2.7 ± 0.2.
Same read-out and setting: under `CCCN(CCC)C(=O)c1cccc2cc3c(cc12)OCO3` [Compound 72] stands 1.9 ± 0.2.

Staying with this experiment, now noted: IGABA enhancement, GABA EC3–7, Xenopus oocytes.
As for `CCCCN(CCCC)C(=O)c1ccccc1-c1ccc2c(c1)OCO2` [Compound 56], the EC50 was determined as 36.8 ± 2 µM.
Consider `CC1CCN(C(=O)/C=C/C=C/c2ccc3c(c2)OCO3)CC1` [Compound 35], for which the EC50 came out at 67.7 ± 11 µM.
`O=C(/C=C/C=C/c1ccc2c(c1)OCO2)N(CC(F)(F)F)CC(F)(F)F` [Compound 43]: the EC50 was 23.1 ± 3.3 µM.
On the same count and under the same terms, in the case of `CC(C)N(C(=O)/C=C/C=C/c1ccc2c(c1)OCO2)C(C)C` [Compound 22] it was 86.7 ± 13.9 µM; in that of `CC(C)N(C(=O)c1cccc(-c2ccc3c(c2)OCO3)c1)C(C)C` [Compound 53], 55.3 ± 17.6 µM.
The same measure, in the same setting: in the case of `CCCN(CCC)C(=O)c1ccc(-c2ccc3c(c2)OCO3)cc1` [Compound 47] it was 70.8 ± 21.1 µM; in that of `CCCCN(CCCC)C(=O)c1cccc2cc3c(cc12)OCO3` [Compound 73], 31.8 ± 5.3 µM.
As to `CCCN(CCC)C(=O)c1cccc2cc3c(cc12)OCO3` [Compound 72], the EC50 stood at 102 ± 11.2 µM.

Values taken from PMC4106271 (Journal of Medicinal Chemistry, 2014).
